Measurements: the supplement of paper PMC10307832

Key:
Test in all cases: relative viability (nuclei count vs DMSO), 5 days (fraction); higher = more cells survive
201T = system: 201T
Summary of the method: (§1)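 Lung cancer cell lines in 1536-well plates were dosed by pin tool the day after seeding, either with one drug alone or with a fixed anchor-drug dose plus five library-drug doses (not always all listed) in √10 steps. After 5 days, cells were fixed and their nuclei stained in one step (final 0.05% Triton X-100, 1% formaldehyde, 1 ug/ml Hoechst), then counted on 4× images. Relative viability is the nuclei count in treated wells divided by that in vehicle wells. Values are medians of duplicate plates.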

COR-L 105 = system: COR-L 105
Summary of the method: as §1

ChaGo-K-1 = system: ChaGo-K-1
Summary of the method: as §1

EKVX = system: EKVX
Summary of the method: as §1

H3255 = system: H3255
Summary of the method: as §1

HARA = system: HARA
Summary of the method: as §1

HCC-827 = system: HCC-827
Summary of the method: as §1

HOP-62 = system: HOP-62
Summary of the method: as §1

LCLC-103H = system: LCLC-103H
Summary of the method: as §1

LOU-NH91 = system: LOU-NH91
Summary of the method: as §1

NCI-H1975 = system: NCI-H1975
Summary of the method: as §1

NCI-H2126 = system: NCI-H2126
Summary of the method: as §1

NCI-H23 = system: NCI-H23
Summary of the method: as §1

NCI-H2405 = system: NCI-H2405
Summary of the method: as §1

NCI-H3122 = system: NCI-H3122
Summary of the method: as §1

NCI-H596 = system: NCI-H596
Summary of the method: as §1

NCI-H650 = system: NCI-H650
Summary of the method: as §1

NCI-H661 = system: NCI-H661
Summary of the method: as §1

NCI-H727 = system: NCI-H727
Summary of the method: as §1

PC-3 [JPC-3] = system: PC-3 [JPC-3]
Summary of the method: as §1

SK-LU-1 = system: SK-LU-1
Summary of the method: as §1

SW 900 = system: SW 900
Summary of the method: as §1

Which relative viability (201T; first compound 0.2 µM) does the source give for `Cc1csc(=NC2CCCCC2)n1/N=C/c1ccc(O)c(O)c1O` [MIM1] + Nc1ncn([C@H]2C[C@H](O)[C@@H](CO)O2)c(=O)n1 [Decitabine] (partner 2 µM) here?
Its relative viability is 0.849.

What about the relative viability (201T; first compound 0.6325 µM) of the same compound?
Its relative viability is 0.887.

What about the relative viability (201T; first compound 2 µM) of the same compound?
Its relative viability is 0.812.

And the relative viability (201T; first compound 6.325 µM)?
Its relative viability is 0.831.

And the relative viability (201T; first compound 20 µM)?
The relative viability was 0.533.

And the relative viability (COR-L 105; first compound 0.2 µM)?
The relative viability was 0.592.

And the relative viability (COR-L 105; first compound 0.6325 µM)?
The relative viability was 0.661.

And the relative viability (COR-L 105; first compound 2 µM)?
Its relative viability is 0.72.

What about the relative viability (COR-L 105; first compound 6.325 µM) of the same compound?
Its relative viability is 0.571.

What about the relative viability (COR-L 105; first compound 20 µM) of the same compound?
Its relative viability is 0.571.

What about the relative viability (ChaGo-K-1; first compound 0.2 µM) of the same compound?
The relative viability was 0.542.

What about the relative viability (ChaGo-K-1; first compound 0.6325 µM) of the same compound?
The relative viability was 0.527.

And the relative viability (ChaGo-K-1; first compound 2 µM)?
Its relative viability is 0.544.

What about the relative viability (ChaGo-K-1; first compound 6.325 µM) of the same compound?
The relative viability was 0.459.

And the relative viability (ChaGo-K-1; first compound 20 µM)?
Its relative viability is 0.18.

What about the relative viability (EKVX; first compound 0.2 µM) of the same compound?
The relative viability was 0.405.

What about the relative viability (EKVX; first compound 0.6325 µM) of the same compound?
The relative viability was 0.342.

What about the relative viability (EKVX; first compound 2 µM) of the same compound?
Its relative viability is 0.331.

And the relative viability (EKVX; first compound 6.325 µM)?
Its relative viability is 0.321.

What about the relative viability (EKVX; first compound 20 µM) of the same compound?
The relative viability was 0.341.

And the relative viability (H3255; first compound 0.2 µM)?
The relative viability was 0.562.

What about the relative viability (H3255; first compound 0.6325 µM) of the same compound?
The relative viability was 0.657.

What about the relative viability (H3255; first compound 2 µM) of the same compound?
The relative viability was 0.527.

And the relative viability (H3255; first compound 6.325 µM)?
The relative viability was 0.486.

What about the relative viability (H3255; first compound 20 µM) of the same compound?
The relative viability was 0.242.

And the relative viability (HARA; first compound 0.2 µM)?
The relative viability was 0.529.

And the relative viability (HARA; first compound 0.6325 µM)?
Its relative viability is 0.722.

And the relative viability (HARA; first compound 2 µM)?
The relative viability was 0.697.

What about the relative viability (HARA; first compound 6.325 µM) of the same compound?
The relative viability was 0.475.

What about the relative viability (HARA; first compound 20 µM) of the same compound?
The relative viability was 0.204.

What about the relative viability (HCC-827; first compound 0.2 µM) of the same compound?
Its relative viability is 0.331.

What about the relative viability (HCC-827; first compound 0.6325 µM) of the same compound?
Its relative viability is 0.334.

And the relative viability (HCC-827; first compound 2 µM)?
Its relative viability is 0.305.

What about the relative viability (HCC-827; first compound 6.325 µM) of the same compound?
The relative viability was 0.292.

What about the relative viability (HCC-827; first compound 20 µM) of the same compound?
Its relative viability is 0.175.

And the relative viability (HOP-62; first compound 0.2 µM)?
Its relative viability is 0.206.

What about the relative viability (HOP-62; first compound 0.6325 µM) of the same compound?
The relative viability was 0.222.

What about the relative viability (HOP-62; first compound 2 µM) of the same compound?
Its relative viability is 0.206.

And the relative viability (HOP-62; first compound 6.325 µM)?
The relative viability was 0.222.

And the relative viability (HOP-62; first compound 20 µM)?
Its relative viability is 0.147.

And the relative viability (LCLC-103H; first compound 0.2 µM)?
Its relative viability is 0.773.

And the relative viability (LCLC-103H; first compound 0.6325 µM)?
Its relative viability is 0.778.

And the relative viability (LCLC-103H; first compound 2 µM)?
Its relative viability is 0.808.

And the relative viability (LCLC-103H; first compound 6.325 µM)?
The relative viability was 0.666.

And the relative viability (LCLC-103H; first compound 20 µM)?
The relative viability was 0.367.

What about the relative viability (LOU-NH91; first compound 0.2 µM) of the same compound?
The relative viability was 0.787.

And the relative viability (LOU-NH91; first compound 0.6325 µM)?
Its relative viability is 0.788.

And the relative viability (LOU-NH91; first compound 2 µM)?
Its relative viability is 0.644.

And the relative viability (LOU-NH91; first compound 6.325 µM)?
Its relative viability is 0.742.

And the relative viability (LOU-NH91; first compound 20 µM)?
The relative viability was 0.458.

And the relative viability (NCI-H1975; first compound 0.2 µM)?
Its relative viability is 0.384.

What about the relative viability (NCI-H1975; first compound 0.6325 µM) of the same compound?
The relative viability was 0.385.

What about the relative viability (NCI-H1975; first compound 2 µM) of the same compound?
The relative viability was 0.39.

And the relative viability (NCI-H1975; first compound 6.325 µM)?
The relative viability was 0.216.

What about the relative viability (NCI-H1975; first compound 20 µM) of the same compound?
Its relative viability is 0.137.

What about the relative viability (NCI-H2126; first compound 0.2 µM) of the same compound?
Its relative viability is 0.659.

And the relative viability (NCI-H2126; first compound 0.6325 µM)?
The relative viability was 0.628.

What about the relative viability (NCI-H2126; first compound 2 µM) of the same compound?
The relative viability was 0.545.

And the relative viability (NCI-H2126; first compound 6.325 µM)?
Its relative viability is 0.584.

And the relative viability (NCI-H2126; first compound 20 µM)?
Its relative viability is 0.488.

What about the relative viability (NCI-H23; first compound 0.2 µM) of the same compound?
The relative viability was 0.336.

And the relative viability (NCI-H23; first compound 0.6325 µM)?
The relative viability was 0.322.

What about the relative viability (NCI-H23; first compound 2 µM) of the same compound?
Its relative viability is 0.288.

What about the relative viability (NCI-H23; first compound 6.325 µM) of the same compound?
The relative viability was 0.281.

And the relative viability (NCI-H23; first compound 20 µM)?
Its relative viability is 0.169.

And the relative viability (NCI-H2405; first compound 0.2 µM)?
Its relative viability is 0.744.

And the relative viability (NCI-H2405; first compound 0.6325 µM)?
The relative viability was 0.738.

What about the relative viability (NCI-H2405; first compound 2 µM) of the same compound?
The relative viability was 0.771.

What about the relative viability (NCI-H2405; first compound 6.325 µM) of the same compound?
Its relative viability is 0.561.

What about the relative viability (NCI-H2405; first compound 20 µM) of the same compound?
The relative viability was 0.421.

What about the relative viability (NCI-H3122; first compound 0.2 µM) of the same compound?
Its relative viability is 0.449.

What about the relative viability (NCI-H3122; first compound 0.6325 µM) of the same compound?
Its relative viability is 0.507.

And the relative viability (NCI-H3122; first compound 2 µM)?
The relative viability was 0.487.

What about the relative viability (NCI-H3122; first compound 6.325 µM) of the same compound?
Its relative viability is 0.407.

What about the relative viability (NCI-H3122; first compound 20 µM) of the same compound?
The relative viability was 0.411.

And the relative viability (NCI-H596; first compound 0.2 µM)?
Its relative viability is 1.09.

What about the relative viability (NCI-H596; first compound 0.6325 µM) of the same compound?
Its relative viability is 1.1.

What about the relative viability (NCI-H596; first compound 2 µM) of the same compound?
Its relative viability is 0.831.

And the relative viability (NCI-H596; first compound 6.325 µM)?
The relative viability was 0.84.

What about the relative viability (NCI-H596; first compound 20 µM) of the same compound?
The relative viability was 0.841.

What about the relative viability (NCI-H650; first compound 0.2 µM) of the same compound?
Its relative viability is 0.294.

What about the relative viability (NCI-H650; first compound 0.6325 µM) of the same compound?
Its relative viability is 0.342.

And the relative viability (NCI-H650; first compound 2 µM)?
Its relative viability is 0.345.

What about the relative viability (NCI-H650; first compound 6.325 µM) of the same compound?
Its relative viability is 0.323.

And the relative viability (NCI-H650; first compound 20 µM)?
Its relative viability is 0.206.

And the relative viability (NCI-H661; first compound 0.2 µM)?
The relative viability was 0.496.

And the relative viability (NCI-H661; first compound 0.6325 µM)?
Its relative viability is 0.571.

And the relative viability (NCI-H661; first compound 2 µM)?
Its relative viability is 0.577.

And the relative viability (NCI-H661; first compound 6.325 µM)?
The relative viability was 0.416.

And the relative viability (NCI-H661; first compound 20 µM)?
Its relative viability is 0.284.

And the relative viability (NCI-H727; first compound 0.2 µM)?
Its relative viability is 0.994.

What about the relative viability (NCI-H727; first compound 0.6325 µM) of the same compound?
The relative viability was 0.818.

What about the relative viability (NCI-H727; first compound 2 µM) of the same compound?
The relative viability was 0.841.

What about the relative viability (NCI-H727; first compound 6.325 µM) of the same compound?
The relative viability was 0.879.

What about the relative viability (NCI-H727; first compound 20 µM) of the same compound?
Its relative viability is 0.574.

What about the relative viability (PC-3 [JPC-3]; first compound 0.2 µM) of the same compound?
Its relative viability is 0.816.

What about the relative viability (PC-3 [JPC-3]; first compound 0.6325 µM) of the same compound?
The relative viability was 0.894.

And the relative viability (PC-3 [JPC-3]; first compound 2 µM)?
The relative viability was 0.752.

And the relative viability (PC-3 [JPC-3]; first compound 6.325 µM)?
Its relative viability is 0.774.

And the relative viability (PC-3 [JPC-3]; first compound 20 µM)?
The relative viability was 0.609.

What about the relative viability (SK-LU-1; first compound 0.2 µM) of the same compound?
The relative viability was 0.686.

And the relative viability (SK-LU-1; first compound 0.6325 µM)?
Its relative viability is 0.727.

What about the relative viability (SK-LU-1; first compound 2 µM) of the same compound?
The relative viability was 0.708.

What about the relative viability (SK-LU-1; first compound 6.325 µM) of the same compound?
Its relative viability is 0.65.

And the relative viability (SK-LU-1; first compound 20 µM)?
Its relative viability is 0.351.

What about the relative viability (SW 900; first compound 0.2 µM) of the same compound?
Its relative viability is 0.345.

And the relative viability (SW 900; first compound 0.6325 µM)?
Its relative viability is 0.482.

What about the relative viability (SW 900; first compound 2 µM) of the same compound?
The relative viability was 0.486.

What about the relative viability (SW 900; first compound 6.325 µM) of the same compound?
The relative viability was 0.31.

And the relative viability (SW 900; first compound 20 µM)?
Its relative viability is 0.206.
